Results published in patent US10912712B2, “Treatment of bleeding by non-invasive stimulation” (The Feinstein Institutes for Medical Research, priority 2004, dated 2021).
Entries after “also recorded” stand apart in the source; their conditions may differ.

What was measured:
Male Balb/c Mice [1] = experiment: Bleed time after tail amputation in mice, GTS-21 (Example 10); format: in vivo; settings: GTS-21 4 mg/kg IP vs PBS, 1 hour before, anesthetized, 2 mm of tail amputated
Method: Male Balb/c mice (around 25 g) were injected (intraperitoneally (IP)) with cholinergic agonist GTS-21 (4 mg/kg in 125 µL PBS) or PBS (vehicle control, 125 µL). 1 hour later, mice were anesthetized with ketamine/xylazine (100 mg/kg/10 mg/kg, intraperitoneally).

Male Balb/c Mice [2] = experiment: Effect of alpha-7 antagonist MLA given before nicotine on bleed time (Example 13); format: in vivo
Method: Male Balb/c mice (around 25 g) were divided into three groups: A, B and C. Groups A and C were injected with the alpha-7 antagonist methyllycaconitine, (MLA; 4 mg/kg, IP, in 200 µL PBS), group B was injected with PBS (vehicle control, 125 µ1). 15 minutes later, Group A was injected with PBS (vehicle control, 125 µl) and groups B and C were injected with nicotine (0.3 mg/kg in 125 µL PBS). 30 minutes later, mice were anesthetized (ketamine [100 mg/kg, IP] and xylazine [10 mg/kg, IP]). After immersing tails in 37° C. saline for 5 minutes to normalize vasodilatory state, 2 mm of tail was amputated with a scalpel, and returned to the saline bath (modified from Nagashima et al., Journal of Clinical Investigation (109) 101-110, (2002); Snyder et al., Nature Medicine (5), 64-70, (1999).
Once bleeding stopped, animals were euthanized by CO2 asphyxiation. Data were recorded in seconds, and are presented as mean+/− SE. Student's t-test was used for statistical analysis.

SMILES: COc1ccc(/C=C2\CCCN=C2c2cccnc2)c(OC)c1 [GTS-21]
- total bleeding time (Male Balb/c Mice [1]): significantly reduced the bleed time; also recorded: decrease in bleed time

SMILES: CCN1C[C@]2(COC(=O)c3ccccc3N3C(=O)C[C@H](C)C3=O)CC[C@H](OC)[C@@]34[C@@H]5C[C@H]6[C@H](OC)[C@@H]5[C@](O)(C[C@@H]6OC)[C@@](O)([C@@H](OC)[C@H]23)[C@@H]14 [MLA, methyllycaconitine]
- effect on nicotine induced reduction of bleed time (Male Balb/c Mice [2]; MLA 4 mg/kg IP 15 minutes before nicotine 0.3 mg/kg): inhibited nicotine induced reduction of bleed time

SMILES: CN1CCCC1c1cccnc1 (stereo not drawn) [nicotine]
- total bleeding time (Male Balb/c Mice [2]; nicotine 0.3 mg/kg after PBS pretreatment, 30 minutes later anesthetized, 2 mm of tail amputated): reduction in bleed time
